The target of data set [1] is T1, CYP3A4 (Homo sapiens, UniProt P08684). The data set can be described thus: Inhibition of CYP3A4 in human liver microsomes assessed as residual activity at 5 uM. In kind it is ADME, Microsome. As to conditions: read-out: Activity. In general terms: Liver microsomes are vesicles of endoplasmic reticulum, rich in cytochrome P450 enzymes.
The target of data set [2] is T2, Signal transducer and activator of transcription 6 (Homo sapiens, UniProt P42226).
T2 sequence (P42226 whole entry): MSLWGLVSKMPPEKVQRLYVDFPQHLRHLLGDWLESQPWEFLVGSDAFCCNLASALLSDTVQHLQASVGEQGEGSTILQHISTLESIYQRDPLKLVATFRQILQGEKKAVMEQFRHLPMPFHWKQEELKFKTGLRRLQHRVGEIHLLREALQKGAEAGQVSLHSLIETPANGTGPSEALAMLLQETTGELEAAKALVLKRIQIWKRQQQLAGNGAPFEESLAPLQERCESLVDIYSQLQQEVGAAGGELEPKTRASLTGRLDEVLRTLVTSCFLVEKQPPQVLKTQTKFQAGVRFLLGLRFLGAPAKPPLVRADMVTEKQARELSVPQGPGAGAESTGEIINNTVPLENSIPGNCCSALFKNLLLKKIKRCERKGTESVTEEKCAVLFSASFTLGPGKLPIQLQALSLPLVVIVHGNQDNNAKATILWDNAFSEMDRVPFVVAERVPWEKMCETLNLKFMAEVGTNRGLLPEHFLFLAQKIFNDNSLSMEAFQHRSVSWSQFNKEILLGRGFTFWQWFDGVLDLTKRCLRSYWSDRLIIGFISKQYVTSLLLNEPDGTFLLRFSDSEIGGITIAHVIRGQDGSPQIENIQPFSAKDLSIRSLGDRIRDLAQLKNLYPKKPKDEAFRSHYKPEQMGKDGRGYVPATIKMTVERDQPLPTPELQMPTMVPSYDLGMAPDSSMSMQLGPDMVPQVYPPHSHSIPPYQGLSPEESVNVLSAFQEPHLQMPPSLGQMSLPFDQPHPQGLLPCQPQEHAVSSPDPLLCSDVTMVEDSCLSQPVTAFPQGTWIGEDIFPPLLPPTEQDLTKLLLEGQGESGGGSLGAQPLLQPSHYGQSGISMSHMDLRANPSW
The data set can be described thus: Inhibition of STAT6 in IL4-stimulated human FW4 reporter cells by luciferase assay.

The target in data set [3] is T1, CYP3A4. The data set can be described thus: Inhibition of CYP3A4 in human liver microsomes assessed as residual activity at 5 uM after 30 mins. Format: ADME, Microsome. The following applies: read-out: Activity.
The species named for another data set is Mus musculus. The data set can be described thus: Antiasthmatic activity in OVA-induced pulmonary eosinophila BALB/c mouse model assessed as suppression of eosinophil infiltration in lung treated 30 mins before and 24, 48 hrs after OVA challenge. In kind it is functional, organism-based.
A further data set relates to T-cell. The experiment in a line: Inhibition of IL4 production in C57BL/6 mouse T cell after 16 hrs by T cell differentiation assay. Format: functional, cell-based. The following applies: C57BL/6, T-cell.

SMILES strings stand for the structures. pIC50: −log10 of the molar value.

T1 sequence (P08684 whole entry): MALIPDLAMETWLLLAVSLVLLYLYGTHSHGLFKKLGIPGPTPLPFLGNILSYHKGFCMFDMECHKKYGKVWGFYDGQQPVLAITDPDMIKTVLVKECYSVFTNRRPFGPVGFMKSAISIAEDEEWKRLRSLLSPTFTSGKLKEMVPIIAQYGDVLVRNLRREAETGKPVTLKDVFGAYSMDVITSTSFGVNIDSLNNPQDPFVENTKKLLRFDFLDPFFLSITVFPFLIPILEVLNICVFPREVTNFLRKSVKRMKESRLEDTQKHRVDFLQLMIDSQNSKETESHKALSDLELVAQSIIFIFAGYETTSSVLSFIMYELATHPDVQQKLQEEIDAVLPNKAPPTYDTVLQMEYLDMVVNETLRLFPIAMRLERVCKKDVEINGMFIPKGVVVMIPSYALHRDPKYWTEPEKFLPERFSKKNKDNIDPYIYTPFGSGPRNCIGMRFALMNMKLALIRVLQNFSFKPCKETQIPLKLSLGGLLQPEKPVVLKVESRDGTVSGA

In the case of `CNC(=O)CN1CCN(c2ccc(Nc3ncc4ccn(Cc5cc(F)cc(F)c5)c4n3)cc2)CC1`, the activity at 5 µM on CYP3A4 [1] came to 85%. Also, the pIC50 in data set [2] is 8.33. Moreover, at CYP3A4 [3], the activity at 0.5 h, 5 µM was 77%.

As for `NC(=O)CN1CCN(c2ccc(Nc3ncc4ccn(Cc5cc(F)cc(F)c5)c4n3)cc2)CC1`, the activity at 5 µM on CYP3A4 [1] came out at 104%. Further, in the data set listed under Mus musculus, the Activity result is “Dose-dependent effect”. Besides, the figures for the pIC50 (in data set [2]; in the data set with T-cell) were 8.72 and 8.62, respectively. Also, the activity at 0.5 h, 5 µM at CYP3A4 [3] amounted to 85%.

For `Fc1cc(F)cc(Cn2ccc3cnc(Nc4ccc(N5CCOCC5)cc4)nc32)c1`, the activity at 5 µM at CYP3A4 [1] is 80%. Also, in data set [2], the pIC50 was 6.92. Besides, on CYP3A4 [3], the activity at 0.5 h, 5 µM worked out at 37%.

With `OCCN1CCN(c2ccc(Nc3ncc4ccn(Cc5cc(F)cc(F)c5)c4n3)cc2)CC1`, the activity at 5 µM at CYP3A4 [1] came to 86%. In addition, in data set [2], the pIC50 was 8.25. On CYP3A4 [3], the activity at 0.5 h, 5 µM turned out to be 86%.

Turning to `O=C(O)CN1CCN(c2ccc(Nc3ncc4ccn(Cc5cc(F)cc(F)c5)c4n3)cc2)CC1`, the activity at 5 µM at CYP3A4 [1] was found to be 100%. Besides, in data set [2], the pIC50 was 7.59. The activity at 0.5 h, 5 µM on CYP3A4 [3] worked out at 98%.

As to `CN1CCN(c2ccc(Nc3ncc4ccn(Cc5cc(F)cc(F)c5)c4n3)cc2)CC1`, the activity at 5 µM on CYP3A4 [1] worked out at 90%. Besides, the pIC50 in data set [2] was 8.49. For the same compound, the activity at 0.5 h, 5 µM at CYP3A4 [3] came out at 88%.

Turning to `Fc1cc(F)cc(Cn2ccc3cnc(Nc4ccc(N5CCNCC5)cc4)nc32)c1`, the activity at 5 µM at CYP3A4 [1] was determined as 74%. Also, in data set [2], the pIC50 was 7.92. Moreover, the activity at 0.5 h, 5 µM on CYP3A4 [3] was determined as 95%.

On to `Fc1ccc(Cn2ccc3cnc(Nc4ccc(N5CCOCC5)cc4)nc32)cc1`, for which the activity at 5 µM on CYP3A4 [1] amounted to 82%. In data set [2], this compound showed a pIC50 of 5.39. The activity at 0.5 h, 5 µM on CYP3A4 [3] is 43%.

For `NCCN1CCN(c2ccc(Nc3ncc4ccn(Cc5cc(F)cc(F)c5)c4n3)cc2)CC1`, the activity at 5 µM at CYP3A4 [1] is 65%. The same compound had a pIC50 in data set [2] of 7.47. Also, the activity at 0.5 h, 5 µM on CYP3A4 [3] was 105%.

As to `Fc1cccc(Cn2ccc3cnc(Nc4ccc(N5CCOCC5)cc4)nc32)c1`, the activity at 5 µM at CYP3A4 [1] amounted to 97%. In addition, the pIC50 in data set [2] was 7.43. Besides, the activity at 0.5 h, 5 µM on CYP3A4 [3] was 56%.

With `NC(=O)c1cnc(Nc2ccc(N3CCOCC3)cc2)nc1NCc1c(F)ccc(F)c1F`, the activity at 5 µM on CYP3A4 [1] came to 100%. Moreover, the pIC50 in data set [2] is 9.15. The activity at 0.5 h, 5 µM on CYP3A4 [3] stood at 31%.

`NC(=O)c1cnc(Nc2ccc(N3CCOCC3)cc2)nc1NCc1ccccc1`: the pIC50 in data set [2] is 8.19.

As to `c1ccc(CN2CCc3cnc(Nc4ccc(N5CCOCC5)cc4)nc32)cc1`, the negative-log IC50 (pIC50) in data set [2] is 5.08.

On to `c1ccc(Cn2ccc3cnc(Nc4ccc(N5CCOCC5)cc4)nc32)cc1`, for which the activity at 5 µM at CYP3A4 [1] is 88%. Moreover, in data set [2], the pIC50 was 6.40. Moreover, the activity at 0.5 h, 5 µM on CYP3A4 [3] came out at 34%.

For the compound `Fc1ccccc1Cn1ccc2cnc(Nc3ccc(N4CCOCC4)cc3)nc21`, on CYP3A4 [1], the activity at 5 µM was found to be 78%. In data set [2], this compound had a pIC50 of 6.66. At CYP3A4 [3], the activity at 0.5 h, 5 µM came to 32%.

By pIC50 is commonly meant the negative decadic logarithm of the IC50, by convention in mol/L. A low value points to a large IC50.
